Patent publication US12516053B2, “Bcl-2 inhibitors” (BEIGENE, LTD., priority 2019, dated 2026)
Read-outs that look alike come from different tables or passages of the source.

Columns and labels:
[1] = system: RS4;11 (BCL-2 dependent acute lymphoblastic leukemia cell line); assay: RS4;11 cell proliferation assay; type: cell-based; conditions: CellTiter-GLO, read-out: Cellular proliferation assay (IC50, nM) RS4
Description: RS4;11 Cell Proliferation Assay:
Each compound was serially diluted with 1 μM as the maximum concentration. To test the apoptotic effect of the compounds, the cells were seeded at 50,000 in 180 μl per well in 96-well plates and treated with 10-point dilution series of each compound for 48 hrs at 37° C. Cell viability was assessed after the treatment using CellTiter-GLO luminescent assay (Promega) according to the manufacturer's recommendations. Briefly, 30 μl of CellTiter-GLO reagent was added into 200 μl of cell culture, Mixture was agitated on an orbital shaker for 5 mins to ensure cell lysis followed by 7 mins incubation at room temperature to allow development and stabilization of luminescent signals, which corresponded to quantity of ATP and thus the quantity of metabolically active cells. Luminescent signals were measured using PHERAstar FS reader (BMG). Mean IC50 values for cell viability were determined with GraphPad Prism software.

[2] = molecular target: recombinant human Bcl-2-G101V protein (Homo sapiens, UniProt P10415, G101V); assay: Bcl-2-G101V TR-FRET assay; type: binding
Source text: The IC50 for each compound was derived from fitting the data to the four-parameter logistic equation by Graphpad Prism software or Dotmatics.

BA/F3-BCL-2 G101V cells = BA/F3-BCL-2 G101V cells (Homo sapiens, UniProt P10415, G101V, cells depend on it); assay: BA/F3 cell proliferation assay, Bcl-2 G101V; type: cell-based, Murine; conditions: 24 hrs treatment, 3% FBS, CellTiter-Glo, geometric mean of 3 experiments; read-out: Cellular proliferation assay (IC50, nM) Bcl-2 G101V; BaF3 cell
Description: (§1) BA/F3 cell Proliferation Assay:
(§2) The cells were treated with a 10-point dilution series of compounds for 24 hrs. After the compound treatment, 30 μl of CellTiter-Glo reagent was added in each well. The effects on proliferation were determined using Cell TiterGlo reagent (Promega) according to the manufacturer's instructions. Luminescent signals were measured using PHERAstar FS plate reader (BMG Labtech). ICS50 values for cell viability were determined with GraphPad Prism software and were the geometric mean of 3 independent experiments.

BA/F3-BCL-2 cells = BA/F3-BCL-2 cells (Homo sapiens, UniProt P10415); assay: BA/F3 cell proliferation assay, BCL-2 wild type; type: cell-based, Murine
Description: as §1, §2

[3] = molecular target: Recombinant human Bcl-2 protein (Homo sapiens, UniProt P10415); assay: Bcl-2 TR-FRET assay; type: binding
Description: Compounds disclosed herein were tested for blocking of Bcl-2 protein with its ligand in an assay based on Time-Resolved Fluorescence Resonance Energy Transfer (TR-FRET) methodology. Recombinant human 0.05 nM Bcl-2 protein was pre-incubated with a serial dilution of compounds disclosed herein (top final concentration is 1 uM or 0.1 uM or 0.02 uM or 0.01 uM, 10 points) at room temperature for 0.5 hour in an assay buffer containing 20 mM potassium phosphate buffer, pH 7.5, 50 mM NaCl, 1 mM EDTA, 0.05% Tween-20, 0.01% BSA. […] The inhibition percentage of Bcl-2 interaction with its ligand in presence of increasing concentrations of compounds was calculated based on the TR-FRET signals. The IC50 for each compound was derived from fitting the data to the four-parameter logistic equation by Graphpad Prism software or Dotmatics.

[4] = system: Molt-4 (Bcl-xL-dependent ALL cell line); assay: Molt-4 cell proliferation assay; type: cell-based; conditions: Homo sapiens, MOLT-4; CellTiter-GLO; read-out: Cellular proliferation assay (IC50, nM) Molt-4
Source text: Molt-4 Cell Proliferation Assay:
Each compound was serially diluted with 10 1M as the maximum concentration. The anti-proliferative IC50s of these compounds were similarly determined as a percentage of viable cells upon treatment compared to the untreated control using CellTiter-GLO luminescent assay.

[5] = Homo sapiens, RS4-11, 48 hrs treatment
[6] = TR-FRET, 0.1 nM Bcl-2-G101V, FITC labeled Bak peptide 5 nM, read-out: Biochemical assay (IC50, nM) Bcl-2 G101V
[7] = 24 hrs treatment, 3% FBS, CellTiter-Glo, geometric mean of 3 experiments; read-out: Cellular proliferation assay (IC50, nM) Bcl-2 WT; BaF3 cell
[8] = TR-FRET, 0.05 nM Bcl-2, FITC labeled Bak peptide 0.5 nM, read-out: Biochemical assay (IC50, nM) Bcl-2 WT

Q: With `CC(C)c1ccccc1[C@@H]1CCCN1C1CC2(CCN(c3ccc(C(=O)NS(=O)(=O)c4cc5c(c([N+](=O)[O-])c4)N[C@H](C[C@H]4CC[C@H](O)CC4)CO5)c(N4C[C@@H](C)Oc5nc6[nH]ccc6cc54)c3)CC2)C1` [Example B7, N—(((R)-3-(((1r,4R)-4-hydroxycyclohexyl)methyl)-5-nitro-3,4-dihydro-2H-benzo[b][1,4]oxazin-7-yl)sulfonyl)-4-(2-((S)-2-(2-isopropylphenyl)pyrrolidin-1-yl)-7-azaspiro[3,5]nonan-7-yl)-2-((R)-3-methyl-2,3-dihydropyrrolo[3′,2′:5,6]pyrido[2,3-b][1,4]oxazin-1(6H)-yl)benzamide] as the compound, how does the IC50 [1, 5] read?
A: 0.8 nM

Q: What about the IC50 [2, 6] of the same compound?
A: 1.5 nM

Q: What about the GI50 (BA/F3-BCL-2 G101V cells) of the same compound?
A: 11.2 nM

Q: And the IC50 (BA/F3-BCL-2 cells; [7])?
A: 0.18 nM

Q: What about the IC50 [3, 8] of the same compound?
A: 0.048 nM

Q: For `CC(C)c1ccccc1[C@@H]1CCCN1C1CC2(CCN(c3ccc(C(=O)NS(=O)(=O)c4ccc(NCC5(F)CCOCC5)c([N+](=O)[O-])c4)c(N4CCOc5nc6[nH]ccc6cc54)c3)CC2)C1` [Example B4, (S)-2-(2,3-dihydropyrrolo[3′,2′:5,6]pyrido[2,3-b][1,4]oxazin-1(6H)-yl)-N-((4-(((4-fluorotetrahydro-2H-pyran-4-yl)methyl)amino)-3-nitrophenyl)sulfonyl)-4-(2-(2-(2-isopropylphenyl)pyrrolidin-1-yl)-7-azaspiro[3,5]nonan-7-yl)benzamide], which IC50 [1, 5] is on record?
A: 0.58 nM

Q: And the IC50 [2, 6]?
A: 1.2 nM

Q: And the IC50 [3, 8]?
A: 0.018 nM

Q: What about the IC50 [4] of the same compound?
A: 1420 nM

Q: Which IC50 [1, 5] does the source give for `CC(C)c1ccccc1[C@@H]1CCCN1C1CC2(C1)CN(c1ccc(C(=O)NS(=O)(=O)c3ccc(NC[C@H]4CC[C@](C)(O)CC4)c([N+](=O)[O-])c3)c(N3CCOc4nc5[nH]ccc5cc43)c1)C2` [Example B11, 2-(2,3-dihydropyrrolo[3′,2′:5,6]pyrido[2,3-b][1,4]oxazin-1(6H)-yl)-N-((4-((((1R,4R)-4-hydroxy-4-methylcyclohexyl)methyl)amino)-3-nitrophenyl)sulfonyl)-4-(6-((S)-2-(2-isopropylphenyl)pyrrolidin-1-yl)-2-azaspiro[3.3]heptan-2-yl)benzamide] here?
A: 3.2 nM

Q: What about the IC50 [2, 6] of the same compound?
A: 2.8 nM

Q: And the IC50 [3, 8]?
A: 0.041 nM

Q: And the IC50 [4]?
A: > 10000 nM

Q: How did the IC50 [1, 5] turn out when `[2H]C1([2H])CCC([2H])(c2ccccc2C(C)C)N1C1CC2(CCN(c3ccc(C(=O)NS(=O)(=O)c4cc5c(c([N+](=O)[O-])c4)N[C@H](C[C@H]4CC[C@H](O)CC4)CO5)c(Oc4cnc5[nH]ccc5c4)c3)CC2)C1` (stereo partly drawn) [Example A7, 2-((1H-pyrrolo[2,3-b]pyridin-5-yl)oxy)-N—(((R)-3-(((1r,4R)-4-hydroxycyclohexyl)methyl)-5-nitro-3,4-dihydro-2H-benzo[b][1,4]oxazin-7-yl)sulfonyl)-4-(2-(2-(2-isopropylphenyl)pyrrolidin-1-yl-2,5,5-d3)-7-azaspiro[3,5]nonan-7-v)benzamide] was run?
A: 1.5 nM

Q: And the IC50 [2, 6]?
A: 0.92 nM

Q: And the GI50 (BA/F3-BCL-2 G101V cells)?
A: 35.8 nM

Q: And the IC50 (BA/F3-BCL-2 cells; [7])?
A: 0.38 nM

Q: And the IC50 [3, 8]?
A: 0.021 nM

Q: Which results are given for `CC(C)c1ccccc1[C@@H]1CCCN1C1CC2(CCN(c3ccc(C(=O)NS(=O)(=O)c4cc5c(c([N+](=O)[O-])c4)N[C@H](CC4CCC(O)CC4)CO5)c(N4C[C@H](C)Oc5nc6[nH]ccc6cc54)c3)CC2)C1` (stereo partly drawn) [Example B8, N—(((R)-3-(((1r,4R)-4-hydroxycyclohexyl)methyl)-5-nitro-3,4-dihydro-2H-benzo[b][1,4]oxazin-7-yl)sulfonyl)-4-(2-((S)-2-(2-isopropylphenyl)pyrrolidin-1-yl)-7-azaspiro[3,5]nonan-7-yl)-2-((S)-3-methyl-2,3-dihydropyrrolo[3′,2′:5,6]pyrido[2,3-b][1,4]oxazin-1(6H)-yl)benzamide]?
A: IC50 ([1]; 48 hrs treatment): 0.7 nM; IC50 [2, 6]: 3.3 nM; GI50 (BA/F3-BCL-2 G101V cells): 41.2 nM; IC50 (BA/F3-BCL-2 cells; [7]): 0.65 nM; IC50 [3, 8]: 0.055 nM

Q: What does the source list for `CC(C)c1ccccc1[C@@H]1CCCN1C1CC2(CCN(c3ccc(C(=O)NS(=O)(=O)c4ccc(NC[C@H]5CC[C@](C)(O)CC5)c([N+](=O)[O-])c4)c(N4C[C@@H](C)Oc5nc6[nH]ccc6cc54)c3)CC2)C1` [Example B5, N-((4-((((1r,4r)-4-hydroxy-4-methylcyclohexyl)methyl)amino)-3-nitrophenyl)sulfonyl)-4-(2-((S)-2-(2-isopropylphenyl)pyrrolidin-1-yl)-7-azaspiro[3,5]nonan-7-yl)-2-((R)-3-methyl-2,3-dihydropyrrolo[3′,2′:5,6]pyrido[2,3-b][1,4]oxazin-1(6H)-yl)benzamide]?
A: IC50 [1, 5]: 1 nM; IC50 [2, 6]: 1.1 nM; GI50 (BA/F3-BCL-2 G101V cells): 8.9 nM; IC50 (BA/F3-BCL-2 cells; [7]): 0.13 nM; IC50 [3, 8]: 0.025 nM

Q: What does the source list for `CC1(C)CCC(CN2CCN(c3ccc(C(=O)NS(=O)(=O)c4ccc(NCC5CCOCC5)c([N+](=O)[O-])c4)c(Oc4cnc5[nH]ccc5c4)c3)CC2)=C(c2ccc(Cl)cc2)C1` [ABT-199, Venetoclax, reference compound]?
A: IC50 [1, 5]: 4.2 nM; IC50 [4]: 2570 nM

Q: Which IC50 [1, 5] does the source give for `[2H]C1([2H])CC2(CC(N3CCC[C@H]3c3ccccc3C(C)C)C2)CC([2H])([2H])N1c1ccc(C(=O)NS(=O)(=O)c2cc3c(c([N+](=O)[O-])c2)N[C@H](C[C@H]2CC[C@H](O)CC2)CO3)c(Oc2cnc3[nH]ccc3c2)c1` [Example A6, 2-((1H-pyrrolo[2,3-b]pyridin-5-yl)oxy)-N—(((R)-3-(((1r,4R)-4-hydroxycyclohexyl)methyl)-5-nitro-3,4-dihydro-2H-benzo[b][1,4]oxazin-7-yl)sulfonyl)-4-(2-((S)-2-(2-isopropylphenyl)pyrrolidin-1-yl)-7-azaspiro[3,5]nonan-7-yl-6,6,8,8-d4)benzamide] here?
A: 1.3 nM

Q: And the IC50 [2]?
A: 0.51 nM

Q: What about the GI50 (BA/F3-BCL-2 G101V cells) of the same compound?
A: 21.1 nM

Q: What about the IC50 (BA/F3-BCL-2 cells; read-out: Cellular proliferation assay (IC50, nM) Bcl-2 WT; BaF3 cell; 24 hrs treatment, 3% FBS, CellTiter-Glo, geometric mean of 3 experiments) of the same compound?
A: 0.25 nM

Q: And the IC50 [3]?
A: 0.021 nM

Q: With `CC(C)c1ccccc1[C@@H]1CCCN1C1CC2(CCN(c3ccc(C(=O)NS(=O)(=O)c4cc5c(c([N+](=O)[O-])c4)N[C@H](C[C@H]4CC[C@H](O)CC4)CO5)c(N4CCCOc5nc6[nH]ccc6cc54)c3)CC2)C1` [Example B9, 2-(3,4-dihydro-2H-pyrrolo[3′,2′:5,6]pyrido[2,3-b][1,4]oxazepin-1(7H)-yl)-N—(((R)-3-(((1R,4R)-4-hydroxycyclohexyl)methyl)-5-nitro-3,4-dihydro-2H-benzo[b][1,4]oxazin-7-yl)sulfonyl)-4-(2-((S)-2-(2-isopropylphenyl)pyrrolidin-1-yl)-7-azaspiro[3,5]nonan-7-yl)benzamide] as the compound, how does the IC50 [1, 5] read?
A: 0.5 nM

Q: And the IC50 [2, 6]?
A: 3.3 nM

Q: What about the GI50 (BA/F3-BCL-2 G101V cells) of the same compound?
A: 34.9 nM

Q: And the IC50 (BA/F3-BCL-2 cells; [7])?
A: 0.83 nM

Q: What about the IC50 [3, 8] of the same compound?
A: 0.038 nM

Q: Which results are given for `CC(C)c1ccccc1[C@@H]1CCCN1C1CC2(CCN(c3ccc(C(=O)NS(=O)(=O)c4ccc(NC[C@H]5CC[C@](C)(O)CC5)c([N+](=O)[O-])c4)c(N4C[C@H](C)Oc5nc6[nH]ccc6cc54)c3)CC2)C1` [Example B6, N-((4-((((1r,4r)-4-hydroxy-4-methylcyclohexyl)methyl)amino)-3-nitrophenyl)sulfonyl)-4-(2-((S)-2-(2-isopropylphenyl)pyrrolidin-1-yl)-7-azaspiro[3,5]nonan-7-yl)-2-((S)-3-methyl-2,3-dihydropyrrolo[3′,2′:5,6]pyrido[2,3-b][1,4]oxazin-1(6H)-yl)benzamide]?
A: IC50 [1, 5]: 0.34 nM; IC50 [2, 6]: 1.2 nM; GI50 (BA/F3-BCL-2 G101V cells): 31.9 nM; IC50 (BA/F3-BCL-2 cells; [7]): 1.1 nM; IC50 [3, 8]: 0.027 nM
